The text below walks through data of paper PMC8027839 (Scientific Reports, 2021).

Entries after “also recorded” stand apart in the source; their conditions may differ. Read-outs that look alike come from different tables or passages of the source.

Data set [1] deals with T1, AcpA (Francisella tularensis subsp. novicida, UniProt A0Q436). Put plainly: biochemical. The settings on record: 1 mM; read-out: inhibition of enzymatic activity of AcpA.
The target in data set [2] is T2, SapM (Mycobacterium tuberculosis, UniProt O53361).
T2 construct: made in house; host or cells: Escherichia coli C41 (DE3)
T2 sequence (O53361 44-299): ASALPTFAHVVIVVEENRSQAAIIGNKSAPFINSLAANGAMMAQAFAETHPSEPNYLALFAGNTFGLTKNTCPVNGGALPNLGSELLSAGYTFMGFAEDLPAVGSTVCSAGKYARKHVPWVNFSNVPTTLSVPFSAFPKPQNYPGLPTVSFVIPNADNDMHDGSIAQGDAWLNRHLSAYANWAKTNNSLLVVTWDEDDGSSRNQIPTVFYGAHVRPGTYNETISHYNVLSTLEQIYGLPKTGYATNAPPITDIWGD
Put plainly: Type of inhibition of SapM, Lineweaver-Burk plots. Format: biochemical. The text has this:
To determine the type of inhibition different inhibitor concentrations were selected to yield around 30% and 75% inhibition for each concentration of pNPP. This ensures sufficient signal to obtain accurate data while allowing a significant inhibition effect. Velocity (V) was plotted as a function of pNPP concentration and fit in a Lineweaver–Burk plot (double-reciprocal) using GraphPad Prism 8.41. All assays were done in 96-well microplates and performed in triplicate in at least two independent experiments.

Data set [3] can be described thus: MTT cytotoxicity assay, MH-S. The settings on record: mouse, MH-S cells (SV40-transformed alveolar macrophage cell line).
The next data set has as its system M. bovis BCG ΔsapM. Format: cell-based. The settings on record: 40 µM.
Another data set relates to Mtb H37Rv strain. The experiment in a line: Mycobacterium tuberculosis infection assay in THP-1 macrophages. Format: cell-based. The settings on record: resting THP-1 macrophages; 1 µM and 40 µM; 24 h and 72 h post infection.
The target of data set [4] is T2, SapM. Put plainly: Microscale thermophoresis of SapM binding. The settings on record: for EC50: MST titration. As for the experimental part:
Microscale thermophoresis (MST) was used to study the direct binding interaction of SapM with three compounds 1, 2 and 13. SapM was labelled with NTA-647nm dye which attaches to the 6-histidine tag. 100 nM NTA-647 was incubated with 200 nM SapM for 1-hour at 4 °C and then centrifuged at 20,000 rcf for 20 minutes at 4 °C in 20 mM HEPES, 200 mM NaCl pH 7.0. 10 mM compound was diluted to 500 μM in the same buffer. Binding checks were carried out with labelled SapM (5 nM) with and without 250 nM compound with LED power of 20% and a medium MST power in a Monolith Pico instrument and using standard capillaries. Binding analysis was performed with a doubling serial dilution from 250 nM with 16 dilutions and a constant concentration of 5 nM labelled SapM.
(In general: Microscale thermophoresis detects binding through changes in fluorescence in a small temperature gradient.)

Data set [5] in a line: Compound precipitation in enzyme assays. Format: physicochemical. The conditions noted are these: AcpA Malachite Green assay.
For data set [6], the target named is T2, SapM. Put plainly: biochemical. It is filed as biochemical. The conditions noted are these: for remaining activity at 100 µM: 0.5 h, relative to pNPP DMSO control, read-out: %SA (percentage specific activity of SapM); for remaining activity at 100 µM / effect on SapM enzyme activity: compounds at 100 µM; for IC50: pNPP assay, dose-response.
The target in the next data set is MptpA (Mycobacterium tuberculosis, UniProt P9WIA1). The experiment in a line: biochemical. The settings on record: pNPP assay, pH 6.
The subject of a further data set is M. bovis BCG wild-type. It is filed as cell-based. The conditions noted are these: Raw 264.7 macrophages; 40 µM; 72 h post-infection; vs DMSO.
For a further data set, the system named is F. tularensis. Format: cell-based, Francisella tularensis. The settings on record: 40 µM; 24 h.
The next data set deals with MptpB (Mycobacterium tuberculosis, UniProt I6WXK4). The experiment in a line: biochemical. The settings on record: pNPP assay, pH 6.
Data set [7] has as its system Francisella tularensis live vaccine strain (LVS). It is filed as cell-based. The conditions noted are these: MH-S macrophages; 40 μM; 24 h post infection.
A further data set has as its target VHR (Homo sapiens, UniProt P51452). The experiment in a line: hVHR inhibition, pNPP assay. Format: biochemical.
The next data set concerns the target T3, PTP1B (Homo sapiens, UniProt P18031).
T3 sequence (P18031 1-435): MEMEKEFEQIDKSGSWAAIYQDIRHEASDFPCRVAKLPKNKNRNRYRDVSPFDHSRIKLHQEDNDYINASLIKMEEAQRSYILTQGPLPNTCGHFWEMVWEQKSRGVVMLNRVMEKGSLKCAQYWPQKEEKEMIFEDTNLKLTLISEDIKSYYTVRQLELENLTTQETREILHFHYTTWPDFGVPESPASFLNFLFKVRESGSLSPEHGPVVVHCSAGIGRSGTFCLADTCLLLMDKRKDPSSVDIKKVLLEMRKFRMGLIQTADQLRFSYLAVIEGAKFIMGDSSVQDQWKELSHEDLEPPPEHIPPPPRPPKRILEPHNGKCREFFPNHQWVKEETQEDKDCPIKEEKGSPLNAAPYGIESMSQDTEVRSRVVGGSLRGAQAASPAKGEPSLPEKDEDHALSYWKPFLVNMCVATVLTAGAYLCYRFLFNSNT
The experiment in a line: hPTP1B inhibition, pNPP assay. Format: biochemical.

For data set [8], the target named is T2, SapM. Also noted: method as in PMID 31312014. The conditions noted are these: previously reported; cited from earlier work.
The target in data set [9] is T1, AcpA. The experiment in a line: biochemical.

T1 sequence (A0Q436 21-514 limits assumed): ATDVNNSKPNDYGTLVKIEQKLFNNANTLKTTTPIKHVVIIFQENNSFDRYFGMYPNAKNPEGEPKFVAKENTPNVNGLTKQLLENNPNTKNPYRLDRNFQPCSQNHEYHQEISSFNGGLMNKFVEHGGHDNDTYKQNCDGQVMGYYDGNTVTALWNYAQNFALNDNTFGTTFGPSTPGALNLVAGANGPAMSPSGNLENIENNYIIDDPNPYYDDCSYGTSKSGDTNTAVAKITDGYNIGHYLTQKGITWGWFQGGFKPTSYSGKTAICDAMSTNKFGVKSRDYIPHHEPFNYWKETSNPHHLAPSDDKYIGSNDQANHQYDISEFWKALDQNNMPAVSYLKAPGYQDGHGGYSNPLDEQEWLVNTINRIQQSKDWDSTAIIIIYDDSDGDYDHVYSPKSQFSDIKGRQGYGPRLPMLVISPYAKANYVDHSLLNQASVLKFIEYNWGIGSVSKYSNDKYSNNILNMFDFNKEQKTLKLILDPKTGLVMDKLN
Sequence of MptpB (I6WXK4 whole entry, looked up): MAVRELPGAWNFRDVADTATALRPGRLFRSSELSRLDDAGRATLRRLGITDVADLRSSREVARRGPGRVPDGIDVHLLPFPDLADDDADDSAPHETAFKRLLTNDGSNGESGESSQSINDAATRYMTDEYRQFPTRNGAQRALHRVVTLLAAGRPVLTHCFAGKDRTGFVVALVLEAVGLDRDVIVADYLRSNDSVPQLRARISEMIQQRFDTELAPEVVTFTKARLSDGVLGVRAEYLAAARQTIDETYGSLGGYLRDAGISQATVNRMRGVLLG
Sequence of MptpA (P9WIA1 whole entry): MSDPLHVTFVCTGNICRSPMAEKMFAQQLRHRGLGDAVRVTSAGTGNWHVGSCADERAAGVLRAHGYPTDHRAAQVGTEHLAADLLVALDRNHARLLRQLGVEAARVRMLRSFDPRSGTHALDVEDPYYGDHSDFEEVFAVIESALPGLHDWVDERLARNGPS
Sequence of VHR (P51452 whole entry): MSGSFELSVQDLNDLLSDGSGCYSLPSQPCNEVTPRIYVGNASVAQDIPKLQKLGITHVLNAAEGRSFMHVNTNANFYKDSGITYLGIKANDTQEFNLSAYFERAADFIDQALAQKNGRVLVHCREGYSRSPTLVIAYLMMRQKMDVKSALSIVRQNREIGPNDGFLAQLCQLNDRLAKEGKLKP

On to `N#CC(C#N)=C(N)/C(C#N)=C/c1cc(O)c(O)c(O)c1` [Compound 1, Tyrphostin 51], for which, on AcpA [1], the inhibition (usually the percentage by which the read-out fell short of the control) at 1000 µM is about 30%. Also, the “mechanism of inhibition of SapM” value on SapM [2] is given as “uncompetitive inhibitors”. For the same compound, the viability – broadly, the share of living cells, or the viability signal relative to a control – at 24 h in data set [3] is over 70%. Besides, the “intracellular burden of ΔsapM” value with M. bovis BCG ΔsapM is recorded as “did not further reduce the intracellular burden”. Besides, in the data set on Mtb H37Rv strain, the “Mtb intracellular burden vs DMSO control” value was “significant (****p < 0.0001) reduction”. The “binding to SapM by MST” value on SapM [4] is reported as “confirmed”. Moreover, it took 0.52 µM to reach a half-maximal effect at SapM [4] (Bivalent fit EC50 (1), tighter binding mode) (EC50). The “concentration at which compound precipitates” value in [5] is at least 2000 µM. In addition, the remaining activity at 100 µM at SapM [6] was determined as 0%. Besides, the “effect on SapM enzyme activity” value on SapM [6] is “completely abolished the enzymatic activity; also recorded: abolished enzyme activity completely”. Besides, the IC50 (in general, the concentration that inhibits the measured activity by half) at SapM [6] is 6.3 ± 1 µM; against MptpA, 19.8 ± 1 µM; at MptpB it was over 100 µM. The “intracellular burden of wild-type M. bovis BCG” value with M. bovis BCG wild-type is “reduced the intracellular burden”. The “acellular growth of F. tularensis” value in the data set with F. tularensis is “does not affect acellular growth”. In addition, the “reduction of F. tularensis intracellular burden” value in [7] amounted to 55%.
Consider `O=c1oc2c(cc1O)oc(=O)c1cc(O)c(O)c(O)c12` [Compound 2, Galloflavin], for which the “mechanism of inhibition of SapM” value at SapM [2] is on record as “uncompetitive inhibitors”. Besides, the IC50 was over 100 µM at VHR; over 100 µM on PTP1B; 9.3 ± 1.1 µM at SapM [6]; 55.2 ± 1.1 µM at MptpA; over 100 µM against MptpB. Besides, the “intracellular burden of ΔsapM” value in the data set with M. bovis BCG ΔsapM is “did not further reduce the intracellular burden”. Further, the “Mtb intracellular burden vs DMSO control” value in the data set on Mtb H37Rv strain is given as “significant (****p < 0.0001) reduction”. Further, the “binding to SapM by MST” value at SapM [4] is “confirmed”. For the same compound, the EC50 (usually the concentration that produces a half-maximal response) at SapM [4] (read-out: Single species dose response EC50) stood at 32 ± 16 µM. On SapM [6], the remaining activity at 100 µM was 0%. Also, at SapM [6], the “effect on SapM enzyme activity” value is reported as “completely abolished the enzymatic activity; also recorded: inhibits SapM activity completely”. In the data set on M. bovis BCG wild-type, the “intracellular burden of wild-type M. bovis BCG” value is reported as “reduced the intracellular burden”.
Regarding `O=C1O[C@H]([C@@H](O)CO)C(O)=C1OP(=O)(O)O` [Compound 2P-AC, 2-phospho-L-ascorbic acid], the results for the IC50 on SapM [8] and against AcpA [9] were over 200 µM and 116 ± 1.02 µM, respectively.
